Results: ChEMBL document CHEMBL1140575, “Xanthones from Cudrania tricuspidata displaying potent alpha-glucosidase inhibition” (Bioorg Med Chem Lett, 2007)

assay: Inhibition of bakers yeast alpha-glucosidase by spectrophotometry; design: species or system Saccharomyces cerevisiae

C=CC(C)(C)c1c(O)cc2oc3cc(O)c(O)c(CC=C(C)C)c3c(=O)c2c1O and C=CC(C)(C)c1c(O)cc(O)c2c(=O)c3c(CC=C(C)C)c(O)c(O)cc3oc12 [CUDRATRICUSXANTHONE A] are within 1.5-fold of each other in IC50: 35.8 µM for the first, 37.7 µM for the second.

Compared with CC(C)=CCc1c2c(c(O)c3c(=O)c4cc(O)c(O)cc4oc13)C(C)(C)C(C)O2 (stereo not drawn), CC(C)=CCc1c(O)c(O)cc2c(=O)c3c(O)c4c(cc3oc12)OC(C)C4(C)C (stereo not drawn) [CUDRAXANTHONE M] is higher in IC50: 32 µM for the first, over 100 µM for the second.

Compared with C=CC(C)(C)c1c(O)cc(O)c2c(=O)c3cc(O)c4c(c3oc12)C=CC(C)(C)O4, C=CC(C)(C)c1c(O)cc2oc3c(CC=C(C)C)c(O)c(O)cc3c(=O)c2c1O [CUDRAXANTHONE L] is 2.1-fold higher in IC50: 24.9 µM for the first, 52.9 µM for the second. The first is the more potent here.

Going from C=CC(C)(C)c1c(OC)cc(O)c2c(=O)c3c(CC=C(C)C)c(O)c(O)cc3oc12 [CUDRAXANTHONE D] to C=CC(C)(C)c1c(O)c(CC=C(C)C)c2oc3cc(O)c(O)cc3c(=O)c2c1O [MACLURAXANTHONE B], the IC50 rises from 16.2 µM to 38.2 µM (2.4-fold). The first is the more potent here.
